The results in this text go back to patent publication US10266520B2, “Bisamidinium-based inhibitors for the treatment of myotonic dystrophy” (The Board of Trustees of the University of Illinois, priority 2014, dated 2019).

One data set relates to MBNL1-(CUG)16 complex. In words: EMSA inhibition of the MBNL1-(CUG)16 complex. It is filed as biochemical. The following applies: for Ki: KI=IC50×KD/[protein]total, read-out: KI, apparent inhibition constant, MBNL1-(CUG)16 complex. On the procedure:
FIG. 1A-B. Determination of inhibition constants, KI, by EMSA. (a) Representative gels showing the release of (CUG)16 at different ligand concentrations. Top band is the MBNL1-(CUG)16 complex, the bottom band is the free (CUG)16. (b) IC50 values were obtained by plotting the RNA fraction bound versus ligand concentrations. The apparent inhibition constant (KI) was calculated using the equation: KI=IC50×KD/[protein]total, where KD is the dissociation constant of the MBNL1-RNA complex and [protein] is at least 7-fold greater than the KD. Error bars represent standard deviation of three independent experiments.
An electrophoretic mobility shift assay (EMSA) was employed to determine the in vitro inhibition of MBNL1-rCUG^exp complex by monomer 1a and dimers 2a-b (FIG. 1). This study used (CUG)16, which can form a hairpin structure containing a maximum of 8 U-U mismatches. […] Likely, a 1:1 complex was formed. In this study, a truncated MBNL1 (1-272 amino acids) containing four zinc finger motifs of MBNL1 and a hexahistidine tag (C-terminus) was employed. This MBNL1 construct and the full-length MBNL1 have the similar affinities to rCUG repeats.
To determine the inhibition constant of bivalent ligands 2a and 2b, the MBNL1-(CUG)16 mixture, in which ca. 50% of the RNA is free, was incubated with various concentrations of ligand (FIG. 1a). The dimer concentrations were not raised to higher than 10 μM due to the aggregation on the gel at high concentrations. As the concentration of ligand increased, more RNA was released from the complex with MBNL protein. By fitting the plot of bound RNA fractions versus ligand concentrations with an appropriate equation, the IC50 value was determined (FIG. 1b).
(CUG)16 RNA was labeled with [γ-^32P]-ATP using T4 poly-nucleotide kinase (New England Biolabs). Labeled RNA was purified by phenol extraction and ethanol precipitation. Labeled RNA was heated at 95° C. for 5 min, then placed on ice for 10 min and diluted in protein binding buffer (175 mM NaCl, 5 mM MgCl2, 20 mM Tris-HCl (pH 8), 1.25 mM 2-mercapto-ethanol (BME), 12.5% glycerol, 2 mg/ml bovine serum albumin (BSA), 0.1 mg/ml heparin, 0.05% or 0.1% Triton X). For MBNL1-(CUG)16 binding study, MBNL1 was serially diluted by a factor of 3 in protein binding buffer. To each solution was added labeled RNA, so that the final concentration of RNA was 0.2 nM. The resulting mixtures were incubated at room temperature for 10 min and loaded onto a 6% polyacrylamide gel (80:1) at 4° C. The gel was run for 2 h at 180 V in Tris-Borate 0.5× buffer (pH 8.2-8.3). Gels were dried at 80° C. under high vacuum for 2 h, developed overnight in phosphor exposure cassette, and visualized on a Molecular Dynamics Storm PhosphorImager. The KD (1:1 stoichiometry assumption) was obtained by fitting the normalized fraction RNA bound versus the concentration of protein using the equation: Fraction RNA bound=Bmax×[MBNL1]total^h/(KD^h+MBNL1]total^h) where Bmax is maximum fraction RNA bound, h is a Hill slope. Protein concentration in reaction mixture was larger than 10-fold excess over RNA concentration. Data is illustrated in FIGS. 6 and 7.
On the technique in general: In EMSA bound probe runs differently from free probe, usually more slowly.

Data set [1] concerns Drosophila larvae (24B-GAL4>UAS-i(CTG)480; (CTG)60 control). In words: Larval crawling assay. The format is in vivo. As to conditions: for mobility of normal larvae: 400 μM in fly food, control (CTG)60 larvae. Here is the method:
FIG. 4A-C. Efficacy of 1a and 2a in DM1 Drosophilia fly mode. (a) Improvement in adult rough eye phenotype. Each experiment was conducted in triplicate. (b) Effect of ligands on the control Drosophilia larvae (24B−GAL4>UAS−(CTG)60). (c) Dose-dependent effect of ligands on the DM1 larvae (24B−GAL4>UAS−i(CTG)480). Each experiment was conducted in triplicate, 10 individual larvae for each trial. Error bars represent standard deviation, two tail t-test *P<0.05, **P<0.01, ***P<0.001.
An individual larva generated from transgenic flies was placed on a Petri dish over graph paper, and the number of grid lines crossed by the larva in 1 min was recorded.
Drosophila lines were cultured in standard cornmeal medium supplemented with dry yeasts. Fly lines bearing UAS-(CTG)60 and UAS-(CTG)480 were kind gifts of Prof. Rubén Artero Allepuz (Universitate de València, Estudi General, Spain). The gmr-GAL4 and […] lines were used to drive UAS transgene expression in eye and muscles respectively. Ligands 1a and 2a were dissolved in ddH2O and mixed with fly food. Genetic crosses were set up in drug-containing fly food at 21.5° C. for external eye assay, and at 25° C. for larval crawling assay.
Larval crawling assay was performed as previously described (Lanson et al., Hum. Mol. Genet. 2011, 20, 2510-2523). Ten wandering third instar larvae were washed in ddH2O and placed on a 2% agarose gel in a 15-cm Petri dish with gridlines spaced at 0.5 cm. The larvae were allowed to acclimate for a period of 1 min, and the total number of gridlines that the posterior end of the larvae passes in 1 min was determine. Each set of experiment was repeated independently for three times using larvae collected from separate genetic crosses.

Data set [2] concerns MBNL1-rCUG^exp nuclear foci. The experiment in a line: Nuclear foci quantification with endogenous MBNL1 (immunofluorescence) in DM1 model cells. The format is cell-based. The following applies: 48 h. Here is the method:
FIG. 2A-C. (a) Representative confocal microscope images showing the GFP-MBNL-rCUG^exp foci disruption by compounds 1a and 2a. (b) Percent of foci area per cell after treatment of ligands for 48 h. The sequestration and dispersion of endogenous MBNL under the treatment of ligand are quantitatively measured. Error bars represent standard errors of mean from at least four independent experiments, two-tail t-test *P<0.005. Note: This was a head-to-head comparison between compounds 1a and 2a. […] The difference is attributed to variability in cells and conditions. (c) Cytotoxicity profile of compound 2a.
In addition, a parallel experiment using endogenous MBNL1 in place of GFP-MBNL1 was conducted to quantify foci reduction in a model that more closely resembles DM1 patient cells. The endogenous MBNL1 was detected by an immunofluorescence technique (Alexa Fluor® 488 dye-labeled antibody) (Wong et al., J. Am. Chem. Soc. 2014, 136, 6355-6361). […] Incubation of 2a at 10 μM decreased the foci area to ca. 36%, but a similar level was also observed for the 100 μM treatment. It is encouraging that dimeric ligand 2a is as active at 1 μM as monomeric ligand 1a is at 100 μM. However, the lack of an obvious dose dependence and failure to fully dissolved nuclear foci at 100 μM may indicate a cellular penetration issue for 2a. Further study is underway.
ITC, EMSA, confocal microscopy, IR splicing, and the reversal of rough-eye phenotype assays were conducted as previously described (Wong et al., J. Am. Chem. Soc. 2014, 136, 6355-6361). The cytotoxicity of 2a was accessed using a published protocol (Vichai et al., Sulforhodamine B colorimetric assay for cytotoxicity screening, Nat. Protoc. 2006, 1, 1112-1116).

The molecule `N=C(NCCCCNc1nc(N)nc(N)n1)c1ccc(C(=N)NCCCCNc2nc(N)nc(N)n2)cc1` [Compound 1a] gave an IC50 with MBNL1-(CUG)16 complex (EMSA) of 189 ± 33 µM. Besides, the “KI of 1a relative to that for 2a and 2b (fold higher)” value on MBNL1-(CUG)16 complex (EMSA, identical conditions) is about 1000 fold. The Ki on MBNL1-(CUG)16 complex (EMSA) is 16 ± 6 µM. For the same molecule, the crawling defect rescued entry in data set [1] (100 μM, DM1 larvae) is on record as “ca. 14%”; in data set [1] (200 μM, DM1 larvae) it was about 54%; in data set [1] (400 μM, DM1 larvae), about 84%. Further, in data set [1], the “mobility of normal larvae” value is given as “the mobility is not affected”. Also, the “nuclear foci remaining / foci area” value in data set [2] (100 μM) was “ca. 90%”.
`N=C(NCCCCNc1nc(N)nc(N)n1)c1ccc(C(=N)NCCCCNc2nc(N)nc(NCCCn3cc(CNc4nc(N)nc(NCCCCNC(=N)c5ccc(C(=N)NCCCCNc6nc(N)nc(N)n6)cc5)n4)nn3)n2)cc1` [Compound 2a]: the “inhibitory power toward the MBNL1-rCUG^exp interaction relative to compound 1a (fold greater)” value in the data set with MBNL1-(CUG)16 complex is given as “ca. 1000 fold”. Also, in the data set with MBNL1-(CUG)16 complex (EMSA), the midpoint of inhibition, the IC50, lay at 0.29 ± 0.03 µM and the Ki turned out to be 0.025 ± 0.008 µM. In addition, in data set [1] (20 μM, DM1 larvae), the “improvement in the DM1 larva's mobility” value was found to be 37%. Besides, the crawling defect rescued result in data set [1] (100 μM, DM1 larvae) is listed as “nearly full recovered”. For the same molecule, in data set [1], the “mobility of normal larvae” value is given as “the mobility is not affected”. The “nuclear foci remained after treatment” value in data set [2] (1 μM) is recorded as “approximately 72%”. For the same molecule, in data set [2] (10 μM), the “foci area after treatment” value is “ca. 36%”.

As usually defined, the IC50 is the concentration that inhibits the measured activity by half.
